# Residues, ends and D or L forms follow the SMILES beside them. *: point of attachment. Cam = NC(=O)C*
# Tests used:
# [1] = system: set of Gram-negative and Gram-positive bacteria, including drug-resistant clinical isolates; type: cell-based; conditions: 12 strains; median MICs used; MIC > 16 µM taken as 32 µM
# Description: To obtain a global assessment of the effect on antimicrobial activity, the geometric mean of the MIC (G-MIC) was calculated, and from this, the overall improvement or impoverishment with respect to arenicin-1. In general, inverting the symmetry or decreasing the charge had detrimental effects.
# The overall activity against a set of tested bacterial strains was determined by way of the commonly used geometric mean of measured MIC values. […] At the same time, the geometric mean can still discriminate antimicrobial agents showing minor variations in activity; in other words, it has a better “resolution” than the median MIC (MIC50). Some mathematical basics for choosing the geometric mean for antimicrobial activity comparison are further discussed in the Supplementary Chapter S3.
# [2] = system: S. aureus ATCC 25923; type: cell-based, Staphylococcus aureus; conditions: ATCC 25923, 18 h
# Text: (§1) E. coli ML35p, Listeria monocytogenes EGD, methicillin-resistant Staphylococcus aureus (MRSA) ATCC 33591 were kindly provided by Prof. Robert Lehrer (University of California, Los Angeles, CA, USA); E. coli ATCC 25922, E. coli M15, Pseudomonas aeruginosa ATCC 27853, S. aureus ATCC 25923 were provided by Dr. Elena Ermolenko (Institute of Experimental Medicine, St-Petersburg, Russia); drug-resistant clinical isolates were provided by Prof. Gennadiy Afinogenov (Saint Petersburg State University, Russia); S. aureus 710A has been described previously. The following clinical isolates of bacteria were used: P.s aeruginosa resistant to aztreonam, ceftazidime, cefotaxime (obtained from the urine of a patient with cystitis), Acinetobacter baumannii resistant to meropenem (from an infected wound); Staphylococcus intermedius (from an infected wound caused by a dog bite) resistant to ciprofloxacin, cefuroxime, clindamycin, erythromycin, rifampin, gentamicin, benzylpenicillin, oxacillin.
# (§2) This assay was applied to determine the MIC, according to the guidelines of the Clinical and Laboratory Standards Institute, using Mueller Hinton (MH) Broth. We prepared 2x stocks of peptides and serially diluted them in sterile PBS instead of Mueller Hinton Broth, so that the treatment of the bacteria with the peptides was carried out in a medium containing 50% of MH and 50% of PBS, as described. The overnight cultures of each strain were transferred to fresh MH media and further incubated to obtain a mid-logarithmic-growth-phase culture of bacteria. The absorbance of each bacterial suspension was measured at 620 nm, and bacteria were then diluted to approximately 2 × 10^5 CFU/mL. Then, 50 µL of the suspensions were mixed with 50 µL of the peptide dilutions in the wells of a microtiter plate (pre-treated for 1 h at 37 °C with 0.2% bovine serum albumin (BSA) in water, sterilized by filtration, to diminish the non-specific binding of the peptides to the plastic surfaces).
# [3] = system: MRSA ATCC 33591; type: cell-based, Staphylococcus aureus; conditions: ATCC 33591, 18 h
# Text: as §1, §2
# [4] = system: S. aureus c.i.; type: cell-based, Staphylococcus aureus; conditions: 18 h
# Text: as §1, §2
# [5] = system: P. aeruginosa c.i.; type: cell-based, Pseudomonas aeruginosa; conditions: 18 h
# Text: as §1, §2
# [6] = system: human erythroleukemia K-562 cells; type: cell-based; conditions: 24 h
# Description: The standard MTT ((3-(4,5-Dimethylthiazol-2-yl)-2,5-diphenyltetrazolium bromide) test was used for the examination of the cytotoxic activity of AMPs towards human erithroleukemia cells K-562. The cells were purchased from Biolot (Saint Petersburg, Russia) and were grown in RPMI 1640 medium (Biolot, Saint Petersburg, Russia) supplemented with glutamine and 10% FCS. Before the experiment, the culturing medium was replaced with serum-free RPMI 1640. Serial dilutions of the peptides in RPMI were plated in sterile 96-well microplates, and the target cells were dispensed to the microplates (10^5 cells/well in RPMI 1640). The plates were incubated for 24 h at 37 °C under 5% CO2. Cell-free media and cells incubated without peptides served as controls. Four hours before the incubation ended, MTT in PBS (5 mg/mL) was added to each well. After the incubation was stopped by adding isopropanol/ 0.04 M HCl, the optical density was measured at 540 nm, subtracting the background absorbance at 690 nm. Toxicity was determined by nonlinear regression analysis of the corresponding dose–response curves using the Sigma Plot 11 program to calculate the IC50 values (the concentration of the test substance that reduced the OD540 capacity by 50%).
# [7] = system: Staphylococcus intermidius; type: cell-based, Staphylococcus intermedius; conditions: 18 h
# Text: as §1, §2
# [8] = system: E. coli ATCC 25922; type: cell-based, Escherichia coli; conditions: ATCC 25922, 18 h
# Text: as §1, §2
# [9] = system: E. coli M15; type: cell-based, Escherichia coli; conditions: M15, 18 h
# Text: as §1, §2
# [10] = system: Pseudomonas aeruginosa ATCC 27853; type: cell-based; conditions: ATCC 27853, 18 h
# Text: as §1, §2
# [11] = system: Listeria monocytogenes EGD; type: cell-based; conditions: 18 h
# Text: as §1, §2
# [12] = system: Escherichia coli ML35p; type: cell-based; conditions: broth microdilution, 50% Mueller Hinton broth / 50% PBS, 18 h at 37 °C, median of 3–5 experiments in triplicates
# Text: as §1, §2
# [13] = system: Staphylococcus aureus 710A; type: cell-based; conditions: 18 h
# Text: as §1, §2
# [14] = system: Acinetobacter baumanii c.i.; type: cell-based, Acinetobacter baumannii; conditions: 18 h
# Text: as §1, §2
SMILES,G-MIC (geometric mean of all determined MICs) [1] [µM],Minimal Inhibitory Concentrations (MIC) [2] [µM],Minimal Inhibitory Concentrations (MIC) [3] [µM],Minimal Inhibitory Concentrations (MIC) [4] [µM],Minimal Inhibitory Concentrations (MIC) [5] [µM],IC50 [6] [µM],Minimal Inhibitory Concentrations (MIC) [7] [µM],Minimal Inhibitory Concentrations (MIC) [8] [µM],Minimal Inhibitory Concentrations (MIC) [9] [µM],Minimal Inhibitory Concentrations (MIC) [10] [µM],Minimal Inhibitory Concentrations (MIC) [11] [µM],Minimal Inhibitory Concentrations (MIC) [12] [µM],Minimal Inhibitory Concentrations (MIC) [13] [µM],Minimal Inhibitory Concentrations (MIC) [14] [µM]
"CC(C)C[C@@H]1NC(=O)[C@H](C(C)C)NC(=O)CNC(=O)[C@H](CCCNC(=N)N)NC(=O)[C@H](C(C)C)NC(=O)[C@H](CCCNC(=N)N)NC(=O)[C@H](C(C)C)NC(=O)[C@H](Cc2ccc(O)cc2)NC(=O)[C@H](C)NC(=O)[C@H](Cc2ccc(O)cc2)NC(=O)[C@H](C(C)C)NC(=O)[C@@H](NC(=O)[C@H](Cc2c[nH]c3ccccc23)NC(=O)[C@@H](N)CCCNC(=N)N)CSSC[C@@H](C(=O)N[C@@H](Cc2c[nH]c3ccccc23)C(=O)O)NC(=O)[C@H](CCCNC(=N)N)NC(=O)[C@H](CCCNC(=N)N)NC(=O)[C@H](Cc2ccc(O)cc2)NC(=O)[C@H](CCCNC(=N)N)NC(=O)[C@H](C(C)C)NC1=O [AR, Arenicin-1] (HELM PEPTIDE1{R.W.C.V.Y.A.Y.V.R.V.R.G.V.L.V.R.Y.R.R.C.W}$PEPTIDE1,PEPTIDE1,3:R3-20:R3$$$V2.0)",2.7,2,4,4,4,17.9,8,2,2,2,1 to 2,1 to 2,2,4
"CC(C)C[C@@H]1NC(=O)[C@H](C(C)C)NC(=O)CNC(=O)[C@H](CCCNC(=N)N)NC(=O)[C@H](C(C)C)NC(=O)[C@H](CCCNC(=N)N)NC(=O)[C@H](C(C)C)NC(=O)[C@H](Cc2ccc(O)cc2)NC(=O)[C@H](C)NC(=O)[C@H](Cc2ccc(O)cc2)NC(=O)[C@H](C(C)C)NC(=O)[C@@H](NC(=O)[C@H](Cc2ccccc2)NC(=O)[C@@H](N)CCCNC(=N)N)CSSC[C@@H](C(=O)N[C@@H](Cc2ccccc2)C(=O)O)NC(=O)[C@H](CCCNC(=N)N)NC(=O)[C@H](CCCNC(=N)N)NC(=O)[C@H](Cc2ccc(O)cc2)NC(=O)[C@H](CCCNC(=N)N)NC(=O)[C@H](C(C)C)NC1=O [AR-F] (HELM PEPTIDE1{R.F.C.V.Y.A.Y.V.R.V.R.G.V.L.V.R.Y.R.R.C.F}$PEPTIDE1,PEPTIDE1,3:R3-20:R3$$$V2.0; N-terminus and C-terminus assumed)",1.8,2,2,4,2,9.3,4,1,1,1,2,1,2,2
"CC(C)C[C@@H]1NC(=O)[C@H](C(C)C)NC(=O)CNC(=O)[C@H](CCCNC(=N)N)NC(=O)[C@H](C(C)C)NC(=O)[C@H](CCCNC(=N)N)NC(=O)[C@H](C(C)C)NC(=O)[C@H](CCCNC(=N)N)NC(=O)[C@H](Cc2ccc(O)cc2)NC(=O)[C@H](CCCNC(=N)N)NC(=O)[C@H](CCCNC(=N)N)NC(=O)[C@@H](NC(=O)[C@H](Cc2c[nH]c3ccccc23)NC(=O)[C@@H](N)CCCNC(=N)N)CSSC[C@@H](C(=O)N[C@@H](Cc2c[nH]c3ccccc23)C(=O)O)NC(=O)[C@H](C(C)C)NC(=O)[C@H](Cc2ccc(O)cc2)NC(=O)[C@H](C)NC(=O)[C@H](Cc2ccc(O)cc2)NC(=O)[C@H](C(C)C)NC1=O [ARin-s] (HELM PEPTIDE1{R.W.C.R.R.Y.R.V.R.V.R.G.V.L.V.Y.A.Y.V.C.W}$PEPTIDE1,PEPTIDE1,3:R3-20:R3$$$V2.0; N-terminus assumed)",≥12.8,16,>16,>16,>16,37.7,>16,8,8,4 to 8,2,4 to 8,16,16
CC(C)C[C@H](NC(=O)[C@@H](NC(=O)CNC(=O)[C@H](CCCNC(=N)N)NC(=O)[C@@H](NC(=O)[C@H](CCCNC(=N)N)NC(=O)[C@@H](NC(=O)[C@H](Cc1ccc(O)cc1)NC(=O)[C@H](C)NC(=O)[C@H](Cc1ccc(O)cc1)NC(=O)[C@@H](NC(=O)[C@H](CSCC(N)=O)NC(=O)[C@H](Cc1c[nH]c2ccccc12)NC(=O)[C@@H](N)CCCNC(=N)N)C(C)C)C(C)C)C(C)C)C(C)C)C(=O)N[C@H](C(=O)N[C@@H](CCCNC(=N)N)C(=O)N[C@@H](Cc1ccc(O)cc1)C(=O)N[C@@H](CCCNC(=N)N)C(=O)N[C@@H](CCCNC(=N)N)C(=O)N[C@@H](CSCC(N)=O)C(=O)N[C@@H](Cc1c[nH]c2ccccc12)C(=O)O)C(C)C [ARlin] (H-RWC(Cam)VYAYVRVRGVLVRYRRC(Cam)W-OH; N-terminus assumed),3.1,2,4,8 to 16,4 to 8,> 40,8,2,2,2,2,1 to 2,2,4
